Tests used:
Human collagenase = biological target: T1, Human collagenase (Homo sapiens, UniProt P03956); experiment: Inhibitory Activity of Collagenase; format: biochemical; settings: at 1 × 10^−6M; activated collagenase from human skin fibroblast culture medium, FTTC-labeled calf skin type I collagen, 37° C., 120 minutes
T1 construct: endogenous in cells; host or cells: human skin fibroblasts stimulated with interleukin-1β
T1 sequence (P03956 100-469): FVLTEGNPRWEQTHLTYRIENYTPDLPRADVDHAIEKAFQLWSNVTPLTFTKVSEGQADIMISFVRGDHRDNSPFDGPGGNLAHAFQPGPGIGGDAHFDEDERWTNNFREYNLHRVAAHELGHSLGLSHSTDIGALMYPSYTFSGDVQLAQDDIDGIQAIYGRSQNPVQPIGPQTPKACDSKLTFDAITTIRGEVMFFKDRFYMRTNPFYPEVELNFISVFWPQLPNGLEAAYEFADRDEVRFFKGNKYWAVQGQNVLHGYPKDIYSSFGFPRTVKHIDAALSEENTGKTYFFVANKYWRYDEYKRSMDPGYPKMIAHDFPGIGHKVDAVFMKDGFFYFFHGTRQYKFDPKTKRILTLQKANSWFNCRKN
Procedure: Human collagenase was prepared from the culture medium of human skin fibroblast stimulated with interleukin-1β (1 ng/ml). Latent collagenase was activated by incubation with trypsin (200 μg/ml) at 37° C. for 60 minutes and the reaction was stopped by adding soybean trypsin inhibitor (800 μg/ml). Collagenase activity was determined using FTTC-labeled calf skin type I collagen. FTTC-collagen (2.5 mg/ml) was incubated at 37° C. for 120 minutes with the activated collagenase and test compound in 50 mM Tris buffer (containing 5 mM CaCl2, 200 mM NaCl and 0.02% NaN3, pH 7.5). After stopping the enzyme reaction by adding the equal volume of 70% ethanol-200 mM Tris buffer (pH 9.5), the reaction mixture was centrifuged, and collagenase activity was estimated by measuring the fluorescence intensity of supernatant at 495 nm (excitation) and 520 nm (emission).

Row | melting point [°C] | Inhibitory activity (Human collagenase) [% at 1 × 10^−6M] | SMILES
1 | 187 to 188 | – | O=C(NO)[C@H]1CN(C(=O)Nc2ccccc2)CCN1S(=O)(=O)c1ccc(-c2ccc(F)cc2)s1 [Example 108, (2R)-1-[5-(4-Fluorophenyl)thiophene-2-sulfonyl]-N-hydroxy-4-[(N-phenyl)aminocarbonyl]-2-piperazinecarboxamide]
2 | 204 | – | O=C(NO)[C@H]1CN(S(=O)(=O)c2ccc(-c3ccon3)s2)CCN1S(=O)(=O)c1ccc(-c2ccccc2)s1 [Example 139, (2R)-N-Hydroxy-4-[5-(isoxazol-3-yl)thiophene-2-sulfonyl]1-(5-phenylthiophene-2-sulfonyl)-2-piperazinecarboxamide]
3 | – | 95.3 | CS(=O)(=O)N1CCN(S(=O)(=O)c2ccc([N+](=O)[O-])cc2)[C@@H](C(=O)NO)C1 [Example 5, (2R)-1-(4-nitrobenzenesulfonyl)-4-methanesulfonylpiperazine-2-(N-hydroxy)carboxamide]
4 | 118 to 122 | – | CS(=O)(=O)NCCS(=O)(=O)N1CCN(S(=O)(=O)c2ccc(-c3ccc(Cl)cc3)s2)[C@@H](C(=O)NO)C1 [Example 182, (2R)-1-[5-(4-Chlorophenyl)thiophene-2-sulfonyl]-N-hydroxy-4-[2-(methanesulfonylamino)ethanesulfonyl]-2-piperazinecarboxamide]
5 | 170 to 174 | – | O=C(NO)[C@H]1CN(S(=O)(=O)CCc2ccccn2)CCN1S(=O)(=O)c1ccc(-c2ccccc2)s1 [Example 106, (2R)-N-Hydroxy-1-(5-phenylthiophene-2-sulfonyl)-4-[2-(2-pyridyl)-ethanesulfonyl]-2-piperazinecarboxamide]
6 | 153 to 155 | – | CN(C)S(=O)(=O)N1CCN(S(=O)(=O)c2ccc(Oc3ccccc3)cc2)[C@@H](C(=O)NO)C1 [Example 176, (2R)-4-(N,N-Dimethylaminosulfonyl)-N-hydroxy-1-(4-phenoxybenzenesulfonyl)-2-piperazinecarboxamide]
7 | 111 to 123 | – | O=C(NO)[C@H]1CN(C(=O)NC2CCCCC2)CCN1S(=O)(=O)c1ccc(-c2ccc(F)cc2)s1 [Example 109, (2R)-4-[(N-Cyclohexyl)aminocarbonyl]-1-[5-(4-fluorophenyl)-thiophene-2-sulfonyl]-N-hydroxy-2-piperazinecarboxamide]
8 | 170 to 172 | – | CN(C)S(=O)(=O)N1CCN(S(=O)(=O)c2ccc(-c3ccc(CC#N)cc3)s2)[C@@H](C(=O)NO)C1 [Example 173, (2R)-1-[5-(4-Cyanomethylphenyl)thiophene-2-sulfonyl)-4-(N,N-dimethylaminosulfonyl)-N-hydroxy-2-piperazinecarboxamide]
9 | 105 to 108 | – | CS(=O)(=O)NCCS(=O)(=O)N1CCN(S(=O)(=O)c2ccc(-c3ccc(C(F)(F)F)cc3)s2)[C@@H](C(=O)NO)C1 [Example 181, (2R)-N-Hydroxy-4-(2-(methanesulfonylamino)ethanesulfonyl]-1-[5-(4-trifluoromethylphenyl)thiophene-2-sulfonyl]-2-piperazinecarboxamide]
10 | 194 to 195 | – | CS(=O)(=O)N1CCN(S(=O)(=O)c2ccc(-c3cccs3)cc2)[C@@H](C(=O)NOC2CCCCO2)C1 (stereo partly drawn) [Example 61, (2R)-4-Methanesulfonyl-1-[4-(thiophen-2-yl)benzenesulfonyl]-N-(2-tetrahydropyranyloxy)-2-piperazinecarboxamide]
11 | 170 to 172 | – | CCN(C)S(=O)(=O)[C@@]1(C(=O)NO)CNCCN1S(=O)(=O)c1ccc(-c2ccc(Cl)cc2)s1 [Example 162, (2R)-1-[5-(4-Chlorophenyl)thiophene-2-sulfonyl]-N-hydroxy-2-(N-methylethylaminosulfonyl)-2-piperazinecarboxamide]
12 | 94 to 99 | – | CS(=O)(=O)N1CCN(S(=O)(=O)/C=C/c2ccccc2)[C@@H](C(=O)NO)C1 [Example 189, (2R)-N-Hydroxy-1-(2-phenyl-2-trans-ethenylsulfonyl)-4-methanesulfonyl-2-piperazinecarboxamide]
